# According to ChEMBL document CHEMBL1201862, “PubChem BioAssay data set” (2004):
#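 48-hour exposure; five concentrations; linearly interpolated endpoints. GI50: concentration for 50% inhibition of growth.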 The source made the active and inactive calls. No stated cut-off is given here; in the data, active = GI50 up to about 1.1 µM and inactive = higher.
# Columns and labels:
# Assay in all cases: growth of human tumour cells (NCI), 48 h
# 786-0 = tested on: 786-0
# A498 = tested on: A498
# A549 = tested on: A549
# ACHN = tested on: ACHN
# CAKI-1 = tested on: CAKI-1
# CCRF-CEM = tested on: CCRF-CEM
# COLO 205 = tested on: COLO 205
# DLD-1 = tested on: DLD-1
# DMS-114 = tested on: DMS-114
# DMS-273 = tested on: DMS-273
# EKVX = tested on: EKVX
# HCC 2998 = tested on: HCC 2998
# HCT-116 = tested on: HCT-116
# HCT-15 = tested on: HCT-15
# HL-60 = tested on: HL-60
# HOP-18 = tested on: HOP-18
# HOP-62 = tested on: HOP-62
# HT-29 = tested on: HT-29
# IGROV-1 = tested on: IGROV-1
# K562 = tested on: K562
# KM-20L2 = tested on: KM-20L2
# KM12 = tested on: KM12
# LOX IMVI = tested on: LOX IMVI
# LXFL 529 = tested on: LXFL 529
# M14 = tested on: M14
# M19-MEL = tested on: M19-MEL
# MOLT-4 = tested on: MOLT-4
# Malme-3M = tested on: Malme-3M
# NCI-H226 = tested on: NCI-H226
# NCI-H460 = tested on: NCI-H460
# NCI-H522 = tested on: NCI-H522
# OVCAR-3 = tested on: OVCAR-3
# OVCAR-4 = tested on: OVCAR-4
# OVCAR-8 = tested on: OVCAR-8
# RPMI-8226 = tested on: RPMI-8226
# RXF 393 = tested on: RXF 393
# RXF 631 = tested on: RXF 631
# SF-268 = tested on: SF-268
# SF-295 = tested on: SF-295
# SF-539 = tested on: SF-539
# SK-MEL-28 = tested on: SK-MEL-28
# SK-MEL-2 = tested on: SK-MEL-2
# SK-MEL-5 = tested on: SK-MEL-5
# SK-OV-3 = tested on: SK-OV-3
# SN12C = tested on: SN12C
# SNB-19 = tested on: SNB-19
# SNB-75 = tested on: SNB-75
# SW-620 = tested on: SW-620
# U-251 = tested on: U-251
# UACC-257 = tested on: UACC-257
# UACC-62 = tested on: UACC-62
# UO-31 = tested on: UO-31
# HOP-92 = tested on: HOP-92
# NCI-H23 = tested on: NCI-H23
# OVCAR-5 = tested on: OVCAR-5
# SNB-78 = tested on: SNB-78
# TK-10 = tested on: TK-10
compound,measurement,setting,value
CCOC(=O)NC(=O)c1cn(CCCCCCOC(=O)NCCCCCCNC(=O)OCCCCCCn2cc(C(=O)NC(=O)OCC)c(=O)[nH]c2=O)c(=O)[nH]c1=O,GI50,786-0,> 100 µM (inactive)
same,GI50,A498,> 100 µM (inactive)
same,GI50,A549,> 100 µM (inactive)
same,GI50,ACHN,> 100 µM (inactive)
same,GI50,CAKI-1,> 100 µM (inactive)
same,GI50,CCRF-CEM,> 100 µM (inactive)
same,GI50,COLO 205,> 100 µM (inactive)
same,GI50,DLD-1,> 100 µM (inactive)
same,GI50,DMS-114,67.9 µM (inactive)
same,GI50,DMS-273,> 100 µM (inactive)
same,GI50,EKVX,> 100 µM (inactive)
same,GI50,HCC 2998,> 100 µM (inactive)
same,GI50,HCT-116,> 100 µM (inactive)
same,GI50,HCT-15,> 100 µM
same,GI50,HL-60,> 100 µM (inactive)
same,GI50,HOP-18,> 100 µM (inactive)
same,GI50,HOP-62,> 100 µM (inactive)
same,GI50,HT-29,> 100 µM (inactive)
same,GI50,IGROV-1,> 100 µM (inactive)
same,GI50,K562,> 100 µM (inactive)
same,GI50,KM-20L2,> 100 µM (inactive)
same,GI50,KM12,> 100 µM (inactive)
same,GI50,LOX IMVI,> 100 µM (inactive)
same,GI50,LXFL 529,> 100 µM (inactive)
same,GI50,M14,> 100 µM (inactive)
same,GI50,M19-MEL,> 100 µM (inactive)
same,GI50,MOLT-4,> 100 µM (inactive)
same,GI50,Malme-3M,> 100 µM (inactive)
same,GI50,NCI-H226,> 100 µM (inactive)
same,GI50,NCI-H460,> 100 µM (inactive)
same,GI50,NCI-H522,> 100 µM (inactive)
same,GI50,OVCAR-3,> 100 µM (inactive)
same,GI50,OVCAR-4,> 100 µM (inactive)
same,GI50,OVCAR-8,> 100 µM (inactive)
same,GI50,RPMI-8226,> 100 µM (inactive)
same,GI50,RXF 393,> 100 µM (inactive)
same,GI50,RXF 631,> 100 µM (inactive)
same,GI50,SF-268,> 100 µM (inactive)
same,GI50,SF-295,> 100 µM (inactive)
same,GI50,SF-539,> 100 µM (inactive)
same,GI50,SK-MEL-28,> 100 µM (inactive)
same,GI50,SK-MEL-2,> 100 µM (inactive)
same,GI50,SK-MEL-5,> 100 µM (inactive)
same,GI50,SK-OV-3,> 100 µM (inactive)
same,GI50,SN12C,> 100 µM (inactive)
same,GI50,SNB-19,> 100 µM (inactive)
same,GI50,SNB-75,> 100 µM (inactive)
same,GI50,SW-620,> 100 µM (inactive)
same,GI50,U-251,> 100 µM (inactive)
same,GI50,UACC-257,> 100 µM (inactive)
same,GI50,UACC-62,> 100 µM (inactive)
same,GI50,UO-31,> 100 µM (inactive)
C[Si](C)(C)c1ccc(CC2(Cc3ccc([Si](C)(C)C)cc3)CCNC2)cc1,GI50,786-0,1.77 µM (inactive)
same,GI50,A498,1.55 µM (inactive)
same,GI50,A549,2.29 µM (inactive)
same,GI50,ACHN,3.18 µM (inactive)
same,GI50,CAKI-1,2.39 µM (inactive)
same,GI50,CCRF-CEM,4.67 µM (inactive)
same,GI50,COLO 205,1.8 µM (inactive)
same,GI50,DLD-1,2.51 µM (inactive)
same,GI50,DMS-114,2.13 µM (inactive)
same,GI50,DMS-273,1.94 µM (inactive)
same,GI50,EKVX,6.75 µM (inactive)
same,GI50,HCC 2998,2.11 µM (inactive)
same,GI50,HCT-116,1.69 µM (inactive)
same,GI50,HCT-15,2.16 µM
same,GI50,HL-60,7.18 µM (inactive)
same,GI50,HOP-18,2.77 µM (inactive)
same,GI50,HOP-62,2.94 µM (inactive)
same,GI50,HOP-92,1.74 µM (inactive)
same,GI50,HT-29,2.04 µM (inactive)
same,GI50,IGROV-1,2.58 µM (inactive)
same,GI50,K562,3.62 µM (inactive)
same,GI50,KM-20L2,1.9 µM (inactive)
same,GI50,KM12,1.99 µM (inactive)
same,GI50,LOX IMVI,1.8 µM (inactive)
same,GI50,LXFL 529,2.18 µM (inactive)
same,GI50,M14,1.76 µM (inactive)
same,GI50,M19-MEL,1.95 µM (inactive)
same,GI50,Malme-3M,3.95 µM (inactive)
same,GI50,NCI-H226,1.88 µM (inactive)
same,GI50,NCI-H23,1.97 µM (inactive)
same,GI50,NCI-H460,2.04 µM (inactive)
same,GI50,NCI-H522,1.78 µM (inactive)
same,GI50,OVCAR-3,1.97 µM (inactive)
same,GI50,OVCAR-4,2.1 µM (inactive)
same,GI50,OVCAR-5,4.67 µM (inactive)
same,GI50,OVCAR-8,1.85 µM (inactive)
same,GI50,RXF 393,1.71 µM (inactive)
same,GI50,RXF 631,2.32 µM (inactive)
same,GI50,SF-268,2.22 µM (inactive)
same,GI50,SF-295,2.52 µM (inactive)
same,GI50,SF-539,3.34 µM (inactive)
same,GI50,SK-MEL-28,2.33 µM (inactive)
same,GI50,SK-MEL-2,1.76 µM (inactive)
same,GI50,SK-MEL-5,1.9 µM (inactive)
same,GI50,SK-OV-3,1.63 µM (inactive)
same,GI50,SN12C,1.71 µM (inactive)
same,GI50,SNB-19,4 µM (inactive)
same,GI50,SNB-75,3.24 µM (inactive)
same,GI50,SNB-78,3.13 µM (inactive)
same,GI50,SW-620,1.86 µM (inactive)
same,GI50,TK-10,21 µM (inactive)
same,GI50,U-251,1.66 µM (inactive)
same,GI50,UACC-257,2.44 µM (inactive)
same,GI50,UACC-62,2.02 µM (inactive)
same,GI50,UO-31,2.48 µM (inactive)
